Type in all cases: functional
The subject of experiment [1] is EC9706. Briefly: (§1) Cytotoxicity against human Ec9706 cells at 100 uM after 48 hrs by MTT assay.
Experiment [2] relates to EC9706. Briefly: (§2) Cytotoxicity against human Ec9706 cells at 200 uM after 48 hrs by MTT assay.
Experiment [3] has as its system EC9706. Description: (§3) Cytotoxicity against human Ec9706 cells at 400 uM after 48 hrs by MTT assay. On the technique in general: Formazan colour is commonly taken as a measure of viable cells.
Experiment [4] deals with A549. Briefly: Cytotoxicity against human A549 cells at 100 uM after 48 hrs by MTT assay. To be noted: for inhibition at 100 µM: A549, 48 h.
Experiment [5] has as its system A549. Briefly: Cytotoxicity against human A549 cells at 200 uM after 48 hrs by MTT assay. To be noted: for inhibition at 200 µM: A549, 48 h.
Experiment [6] concerns A549. Description: Cytotoxicity against human A549 cells at 400 uM after 48 hrs by MTT assay. Particulars: for inhibition at 400 µM: A549, 48 h.
A short description of experiment [7]: as §2. To be noted: EC9706, 48 h.
Experiment [8] can be described thus: as §3. To be noted: EC9706, 48 h.
The nature of experiment [9]: (§4) Cytotoxicity against human Ec9706 cells at 50 uM after 48 hrs by MTT assay. Particulars: EC9706, 48 h.
A short description of experiment [10]: as §1. Particulars: EC9706, 48 h.
In experiment [11] the test system is A549. Description: Cytotoxicity against human A549 cells at 50 uM after 48 hrs by MTT assay. Particulars: for inhibition at 50 µM: A549, 48 h.
The test system of experiment [12] is EC9706. Described as §4.

Activity calls are given as the source filed them. The rule behind the calls is not given here.

For `O=c1c(F)cn([C@H]2CCCO2)c(=O)n1CCO`, the outcome in experiment [1], in experiment [2], in experiment [3], in experiment [4], in experiment [5] and in experiment [6] was inactive.
Regarding `O=c1[nH]c(=O)n(C2CCCO2)cc1F` (stereo not given) [TEGAFUR], the outcome in experiment [1] was inactive. Also, the inhibition at 200 µM in [7] worked out at 7.8%; in [5] it was 15.2%. The inhibition at 400 µM in experiment [8] turned out to be 17.4%; in experiment [6], 17.8%. Moreover, at 100 µM the inhibition in experiment [4] was 12.7%.
`CCCCC/C=C\C/C=C\C/C=C\C/C=C\CCCC(=O)OCCn1c(=O)c(F)cn([C@H]2CCCO2)c1=O`: the inhibition at 50 µM in [9] worked out at 19.3%; in experiment [11], 1.6%. The inhibition at 100 µM stood at 30.8% in [10] and 33.8% in [4]. For the same compound, the inhibition at 200 µM in experiment [7] stood at 59.9%; in [5] it was 78.2%. The inhibition at 400 µM stood at 69.9% in experiment [8] and 92.1% in experiment [6].
For the compound `CCCCCCCC/C=C\CCCCCCCC(=O)OCCn1c(=O)c(F)cn([C@H]2CCCO2)c1=O`, the inhibition at 50 µM in experiment [9] was determined as 3.7%; in [11], 2.5%. Also, the inhibition at 100 µM in [10] amounted to 4.9%; in experiment [4] it was 4.8%.
Regarding `CCCCC/C=C\C/C=C\CCCCCCCC(=O)OCCn1c(=O)c(F)cn([C@H]2CCCO2)c1=O`, the result in experiment [12] was inactive. Moreover, the results for the inhibition at 100 µM in experiment [10] and in experiment [4] were 14.4% and 11%, respectively. For the same compound, the figures for the inhibition at 200 µM in experiment [7] and in experiment [5] were 31.9% and 24.7%, respectively. Further, the inhibition at 400 µM in experiment [8] worked out at 54.4%; in [6] it was 90.7%. Besides, testing at 50 µM in experiment [11] gave an inhibition of 1.8%.
As to `CCCCCCCCCCCC(=O)OCCn1c(=O)c(F)cn([C@H]2CCCO2)c1=O`, the result in [12], in experiment [1], in experiment [11] and in experiment [4] was inactive.
As for `CCCCCCCCCCCCCCCCCC(=O)OCCn1c(=O)c(F)cn([C@H]2CCCO2)c1=O`, the result in [12], in experiment [1], in experiment [11] and in experiment [4] was inactive.

Broadly, the inhibition is the change of the read-out against control, counted positive when it falls. A high value points to strong suppression.

The record behind these values is ChEMBL document CHEMBL1146378, “Synthesis and cytotoxicity of novel fatty acid-nucleoside conjugates” (2007).
